In ChEMBL document CHEMBL4627246, “Pyroglutamide-Based P2X7 Receptor Antagonists Targeting Inflammatory Bowel Disease” (J Med Chem, 2020):

Tests used:
Type in all cases: cell-based
[1] = test system: A549; test: Cytotoxicity against human A549/ATCC cells assessed as effect on cell growth at 10 uM incubated for 48 hrs by sulforhodamine B assay; settings: a549, 48 h
[2] = test system: RPMI-8226; test: Cytotoxicity against human RPMI8226 cells assessed as effect on cell growth at 10 uM incubated for 48 hrs by sulforhodamine B assay; settings: rpmi-8226, 48 h
[3] = test system: EKVX; test: Cytotoxicity against human EKVX cells assessed as effect on cell growth at 10 uM incubated for 48 hrs by sulforhodamine B assay
[4] = test system: HL-60(TB); test: Cytotoxicity against human HL-60(TB) cells assessed as effect on cell growth at 10 uM incubated for 48 hrs by sulforhodamine B assay
[5] = test system: NCI-H23; test: Cytotoxicity against human NCI-H23 cells assessed as effect on cell growth at 10 uM incubated for 48 hrs by sulforhodamine B assay; settings: nci-h23, 48 h
[6] = test system: HT-29; test: Cytotoxicity against human HT-29 cells assessed as effect on cell growth at 10 uM incubated for 48 hrs by sulforhodamine B assay; settings: ht-29, 48 h
[7] = test system: SW-620; test: Cytotoxicity against human SW620 cells assessed as effect on cell growth at 10 uM incubated for 48 hrs by sulforhodamine B assay; settings: sw-620, 48 h
[8] = test system: SF-539; test: Cytotoxicity against human SF539 cells assessed as effect on cell growth at 10 uM incubated for 48 hrs by sulforhodamine B assay; settings: sf-539, 48 h
[9] = test system: M14; test: Cytotoxicity against human M14 cells assessed as effect on cell growth at 10 uM incubated for 48 hrs by sulforhodamine B assay; settings: m14, 48 h
[10] = test system: SK-MEL-2; test: Cytotoxicity against human SK-MEL-2 cells assessed as effect on cell growth at 10 uM incubated for 48 hrs by sulforhodamine B assay; settings: sk-mel-2, 48 h
[11] = test system: SK-MEL-28; test: Cytotoxicity against human SK-MEL-28 cells assessed as effect on cell growth at 10 uM incubated for 48 hrs by sulforhodamine B assay; settings: sk-mel-28, 48 h
[12] = test system: UACC-257; test: Cytotoxicity against human UACC257 cells assessed as effect on cell growth at 10 uM incubated for 48 hrs by sulforhodamine B assay; settings: uacc-257, 48 h
[13] = test system: OVCAR-5; test: Cytotoxicity against human OVCAR5 cells assessed as effect on cell growth at 10 uM incubated for 48 hrs by sulforhodamine B assay; settings: ovcar-5, 48 h
[14] = test system: OVCAR-8; test: Cytotoxicity against human OVCAR8 cells assessed as effect on cell growth at 10 uM incubated for 48 hrs by sulforhodamine B assay; settings: ovcar-8, 48 h
[15] = test system: A498; test: Cytotoxicity against human A498 cells assessed as effect on cell growth at 10 uM incubated for 48 hrs by sulforhodamine B assay; settings: a498, 48 h
[16] = test system: CAKI-1; test: Growth inhibition of human Caki1 cells assessed as growth percentage at 10 uM incubated for 48 hrs by sulforhodamine B assay; settings: caki-1, 48 h
[17] = test system: UO-31; test: Cytotoxicity against human UO31 cells assessed as effect on cell growth at 10 uM incubated for 48 hrs by sulforhodamine B assay; settings: uo-31, 48 h
[18] = test system: PC-3; test: Cytotoxicity against human PC3 cells assessed as effect on cell growth at 10 uM incubated for 48 hrs by sulforhodamine B assay; settings: pc-3, 48 h
[19] = test system: MDA-MB-231; test: Cytotoxicity against human MDA-MB-231 cells assessed as effect on cell growth at 10 uM incubated for 48 hrs by sulforhodamine B assay; settings: mda-mb-231, 48 h
[20] = test system: T47D; test: Cytotoxicity against human T47D cells assessed as effect on cell growth at 10 uM incubated for 48 hrs by sulforhodamine B assay

Measured: Activity

O=C(NCc1ccc(Cl)cc1Cl)[C@@H]1CCC(=O)N1c1cccs1
Non-Toxic: all assays above

O=C1N[C@H](C(=O)NCc2ccc(Cl)cc2Cl)C/C1=C/NCc1ccc(Cl)cc1Cl
Non-Toxic: all assays above

O=C(NCc1ccc(Cl)cc1Cl)[C@@H]1CCC(=O)N1Cc1ccc(Cl)cc1
Non-Toxic: all assays above

CN(C)/C=C1\C[C@H]2C(=O)N(/C(=C/N(C)C)c3ccncc3)C(N(C)C)N2C1=O (stereo not given in full)
Non-Toxic: all assays above

O=C(NCc1ccc(Cl)cc1Cl)[C@@H]1CCC(=O)N1C(c1ccccc1)c1ccccc1
Non-Toxic: all assays above

CN1C(=O)CC[C@H]1C(=O)NCc1cc(C(F)(F)F)ccc1Cl
Non-Toxic: all assays above

COc1ccc(CN2C(=O)[C@@H]3C/C(=C\N(C)C)C(=O)N3C2N(C)C)c(OC)c1 (stereo not given in full)
Non-Toxic: all assays above

O=C(NCc1ccccc1)[C@@H]1CCC(=O)N1Cc1ccc(Cl)cc1Cl
Non-Toxic: all assays above

COc1ccc(CNC(=O)[C@@H]2CCC(=O)N2Cc2ccc(Cl)cc2Cl)c(OC)c1
Non-Toxic: all assays above

O=C(NCc1ccc(Cl)cc1Cl)[C@@H]1CCC(=O)N1c1nccs1
Non-Toxic: all assays above

CN(C)/C=C1\C[C@H]2C(=O)N(Cc3ccccc3Cl)C(N(C)C)N2C1=O (stereo not given in full)
Non-Toxic: all assays above

O=C1N[C@H](C(=O)NCc2ccc(Cl)cc2Cl)CO1
Non-Toxic: all assays above

COc1ccc(NC(=O)[C@@H]2CCC(=O)N2)cc1OC
Non-Toxic: all assays above

CN(C)/C=C1\C[C@@H](C(=O)NCc2ccc(Cl)cc2Cl)N(c2cccs2)C1=O
Non-Toxic: all assays above
